The subject of series [1] is HL-60/TX1000 multi-drug resistant human myeloid leukemia cell line. The experiment in a line: In vitro anti-cancer activity against MDR cell line HL-60/TX1000. The following applies: for IC50: Homo sapiens, HL-60/TX1000 cells, 72 hours, MTS. The class given is cell-based. On the procedure:
(§1) The cell lines were maintained in RPM11640(GIBCO) supplemented with 10% FCS, 100 units/ml penicillin, 100 ug/ml streptomycin, and 2 mM L-glutamine. The cells were split every third day and diluted to a concentration of 2×10^5 cells/ml one day before experiment. All experiments were performed on exponentially growing cell culture. Cell densities were 2.5×10^4 cells/ml in all experiment.
(§2) A stock solution of Compound (1) was prepared by dissolving the compound at a concentration of 1 mM in 100% DMSO. Final concentrations were obtained by diluting the stock solution directly into the tissue culture medium. Cells were incubated with varying concentrations of compounds for 72 hours and the IC50 was determined by MTS (i.e. […]) assay. IC50 stands for the concentration of compound required to inhibit 50% tumor cell growth.
(§3) In vitro activity was determined in two MDR (Multi Drug Resistant) human cancer cell lines. HL-60/TX1000 was isolated in vitro by subculturing HL-60 in progressively higher concentration of Taxol. HL-60/TX1000 cells over-express mdr-1 mRNA and p-glycoprotein, as determined by western blot and immunofluorescence labeling with antiPGP antibodies. The cell is cross-resistant to Taxol, Vincristine, Adriamycin, Etoposide and Doxorubicin. MES-SA/Dx5 was established in the presence of increasing concentrations of Doxorubicin. […] MES-SA/Dx5 was purchased from ATCC.
(§4) The procedure for culturing the cells and assaying cancer cell growth inhibition were as described in Example 3.
(§5) The protocol described in Example 3 was used to assay inhibition by Compounds (2)-(10) on the growth of the multi-drug resistant cell lines MES-SA/DX5 and HL60/TX1000.

Series [2] relates to MES-SA/DX5 multi-drug resistant human uterine sarcoma cell line. Briefly: In vitro anti-cancer activity against MDR cell line MES-SA/DX5. The class given is cell-based. Conditions: for IC50: MES-SA/DX5 cells, 72 hours, MTS. The method, then: as §1, §2, §3, §4, §5
Series [3] deals with MDA435 (human breast cancer). Briefly: In vitro anti-cancer activity, MTS assay, MDA435. The class given is cell-based. Conditions: MDA-435 cells, 72 hours. The method, then: (§6) The in vitro activity of the compounds was determined in the following […] human cancer cell lines. MDA435 (human breast cancer), HL-60 (human myeloid leukemia), DU-145 (human prostate cancer), MES-SA (human uterine sarcoma), H2 (human leukemia) were obtained from ATCC (American Type of Culture Collection).
as §1, §2

Series [4] relates to HL-60 (human myeloid leukemia). Briefly: In vitro anti-cancer activity, MTS assay, HL-60. The following applies: HL-60 cells, 72 hours. The class given is cell-based. On the procedure: as §6, §1, §2
The test system of series [5] is DU-145 (human prostate cancer). The experiment in a line: In vitro anti-cancer activity, MTS assay, DU-145. The class given is cell-based. The following applies: DU-145 cells, 72 hours. The method, then: as §6, §1, §2
Series [6] concerns MES-SA (human uterine sarcoma). Briefly: In vitro anti-cancer activity, MTS assay, MES-SA. It is filed as cell-based. The following applies: MES-SA cells, 72 hours. The method, then:
as §6, §1, §2

Series [7] relates to H2 (human leukemia). Briefly: In vitro anti-cancer activity, MTS assay, H2. The class given is cell-based. The following applies: H2 cells, 72 hours. The method, then: as §6, §1, §2
Series [8] has as its system MCF-7 human breast tumor. The experiment in a line: Tumor growth inhibition assay, human breast tumor (MCF-7) xenograft model. The following applies: nude mice; for tumor growth inhibition (FIG. 1): 3 times a week for 3 weeks. The class given is in vivo, nude mice (CD-1 nu/nu).
Series [9] concerns MDA435 human breast tumor. The experiment in a line: Tumor growth inhibition assay, human breast tumor (MDA435) xenograft model, oral treatment. The class given is in vivo, nude mice. Conditions: for body weight change / loss: nude mice with MDA435 tumors, oral, Compound (5) 25 mg/kg, Compound (3) 50 mg/kg; for tumor growth inhibition (FIG. 2): nude mice, 3 times a week for 3 weeks.

These results are taken from patent US20060004044A1, “3-glyoxylamideindoles for treating cancer” (Synta Pharmaceuticals Corp., priority 2001, published 2006).

For the molecule `NC(=O)c1ccc(NC(=O)C(=O)c2cn(Cc3ccc(Cl)cc3)c3ccccc23)nc1` [(4)], the IC50 in series [1] (HL60/TX1000) and in [2] (Homo sapiens) was 50 nM throughout.

Consider `CSc1nnc(NC(=O)C(=O)c2cn(Cc3ccc(Cl)cc3)c3ccccc23)[nH]1` [(6)], for which the IC50 in series [1] (HL60/TX1000) and in series [2] (Homo sapiens) was 50 nM throughout.

Turning to `O=C(Nc1ccon1)C(=O)c1cn(Cc2ccc(Cl)cc2)c2ccccc12` [(7)], the IC50 came to 50 nM in [1] (HL60/TX1000) and 80 nM in series [2] (Homo sapiens).

For `CN(c1ccccc1)n1cc(C(=O)C(=O)Nc2ccc3ncccc3c2)c2ccccc21` [(8)], the IC50 came to 100 nM in series [1] (HL60/TX1000, 72 h) and 100 nM in [2] (Homo sapiens, MES-SA/Dx5, 72 h).

With `N#Cc1ccc(Cn2cc(C(=O)C(=O)Nc3ccncc3)c3ccccc32)cc1` [(9)], the IC50 in [1] (HL60/TX1000) and in [2] (Homo sapiens) was 50 nM each time.

With `Cc1cc(NC(=O)C(=O)c2cn(Cc3ccc(Cl)cc3)c3ccccc23)no1` [(10)], the IC50 in [1] (HL60/TX1000) and in series [2] (Homo sapiens) was 50 nM throughout.

`Cc1cc(NC(=O)C(=O)c2cn(Cc3ccc(Cl)cc3)c3ccccc23)sn1` [Compound (1), 2-(1-(4-Chloro-benzyl)-1-indol-3-yl)-N-(3-methyl-isothiazol-5-yl)-2-oxo-acetamide]: the IC50 amounted to 5 nM in [3]; 5 nM in series [4]; 5 nM in [5]; 5 nM in series [6]; 5 nM in series [7]; 10 nM in [1] (HL60/TX1000). In [2] (Homo sapiens), this molecule yielded an IC50 of 10 nM. Moreover, the “anti-cancer activity against MDR cancer cell lines (in words)” value in [1] (HL-60/TX1000) and in [2] (MES-SA/DX5) was “high anti-cancer activity” in each case. Besides, the “tumor growth inhibition (FIG. 1)” value in series [8] (7.5 mg/kg intravenously) and in series [8] (10 mg/kg intravenously) was “significantly inhibits tumor growth” throughout. Also, in series [8] (7.5 and 10 mg/kg), the toxicity entry is given as “acceptable toxicity”. For the same molecule, the “reduction of volume of tumors” value in series [8] (intravenously every second day, 10 mg/kg) is “greater than 50%”.

For the molecule `Cc1cc(NC(=O)C(=O)c2cn(Cc3ccc(C#N)cc3)c3ccccc23)sn1` [Compound (2)], the IC50 in series [1] (HL60/TX1000) and in [2] (Homo sapiens) was 5 nM in each case.

On to `NC(=O)c1ccc(NC(=O)C(=O)c2cn(Cc3ccc(Cl)cc3)c3ccccc23)cc1` [Compound (3)], for which the IC50 in series [1] (HL60/TX1000) and in series [2] (Homo sapiens) was 50 nM in each case. Besides, the “body weight change / loss” value in series [9] was “without showing significant body weight loss”. Also, the “tumor growth inhibition (FIG. 2)” value in series [9] (50 mg/kg orally by gavage) is “significantly inhibit tumor growth”.

As for `O=C(Nc1ccc2ncccc2c1)C(=O)c1cn(Cc2ccc(Cl)cc2)c2ccccc12` [Compound (5)], the IC50 in series [1] (HL60/TX1000) and in series [2] (Homo sapiens) was 50 nM in each case. In addition, the “body weight change / loss” value in series [9] is “without showing significant body weight loss”. The “tumor growth inhibition (FIG. 2)” value in [9] (25 mg/kg orally by gavage) is given as “significantly inhibit tumor growth”.

For `CC[C@]1(O)C[C@H]2CN(CCc3c([nH]c4ccccc34)[C@@](C(=O)OC)(c3cc4c(cc3OC)N(C=O)[C@H]3[C@@](O)(C(=O)OC)[C@H](OC(C)=O)[C@]5(CC)C=CCN6CC[C@]43[C@@H]65)C2)C1` [Vincristine, reference compound], the IC50 was 1000 to 5000 nM in [2] (Homo sapiens, MES-SA/Dx5, 72 h) and 1000 nM in series [2].
